Measured values as given in US20230356105A1, “TETRAAZADODECANE BASED CHELATING AGENTS FOR SEPARATION OF RARE EARTH ELEMENTS AND METHOD THEREFOR” (Ustav Organicke Chemie a Biochemie AV CR V.V.I., priority 2020, published 2023).
Where “and” joins values, the source holds several entries; their conditions need not be identical. Equal values may be shown once. Marks after values point to notes of the source that are not given here.

How the values were obtained:
Type in all cases: physicochemical
[1] = Separation of Gd/Lu mixture by repeated precipitation using L1 (Example 13); details: for Precipitate concentration [mM] Gd / Precipitate concentration [mM] Lu: dissolved to 200 μL
Description: Stock solutions were pipetted into round-bottom 2 mL Eppendorf tubes as follows: • 1. 10 μL 100 mM aqueous solution of GdCl3 • 2. 10 μL 100 mM aqueous solution of LuCl3 • 3. 20 μL 100 mM aqueous solution of compound • 4. 33.3 μL 3 M MOPS buffer pH=7. • 5. 127.6 μL water.
Nine identical reaction mixtures were prepared and split into three groups A, B, C. Each tube was equipped with one PTFE-coated magnetic stir bar and sealed, and the mixture was stirred on a magnetic stirrer for 24 hours at room temperature. The tubes were then centrifuged and the supernatants were carefully pipetted out and transferred to a new set of tubes. Precipitates from group A were dissolved by addition of 100 μL 1 M HCl at room temperature over the course of 30 mins and then diluted to 200 μL by the addition of 100 μL water. Concentrations of Gd and Lu in the supernatants and in re-dissolved precipitates from group A were determined by ICP-OES. Precipitates from groups B and C were further processed as follows: the precipitates were dissolved by addition of 100 μL 1 M HCl at room temperature at pH 0 over the course of 30 mins, and the pH was then adjusted to approximately 7 by the addition of 50 μL 2 M NaOH, and the overall volume adjusted to 200 μL by the addition of water. The prepared mixtures were subjected to a second round of precipitation and were stirred on a magnetic stirrer for 24 hours at room temperature. Then, the tubes were again centrifuged and supernatants were carefully pipetted out and transferred to a new set of tubes. Samples from group B were treated identically to the samples from group A previously, and the Gd and Lu content in the supernatants and precipitates was determined by ICP-OES. Precipitates from group C were subjected to a third cycle of precipitation and followed by Gd and Lu content determination analogously to the procedures described above.

[2] = Use of additives to improve separation of Nd/Dy mixture by precipitation with L5 (Example 18); details: no additive (0 mM); 11 mM L5
Summary of the method: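 Mixtures held 5 mM NdCl3, 5 mM DyCl3 and 500 mM MOPS pH 7 with L5, plus additives at variable concentration adjusted to pH 7. Stirred 18 h in sealed cuvettes, then centrifuged; precipitate redissolved in 1 M HCl. Nd and Dy measured in supernatant and precipitate by ICP-OES.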

[3] = Removal of additive from remaining solution after precipitation by ultrafiltration (Example 25); details: Ln chelates of L5
[4] = Ultrafiltration to remove benzoic acid and effect precipitation of L5 complexes (Example 26)
Description: Stock solutions were pipetted into a 20 mL glass vial to prepare the reaction mixture: • 1. 938 μL 196 mM aqueous chelator L5 (pH=4) • 2. 836 μL 1000 mM aqueous benzoic acid (stock solution containing 1 equivalent NaOH) • 3. 8000 μL H2O • 4. 952 μL 175.5 mM aqueous LnCl3 solution (from a stock solution containing a mixture of Ln=Nd, Pr, Tb, and Dy, in a ratio of 3.3:1:1:1, Nd:Pr:Tb:Dy)
The reaction solution was then titrated to pH 6.5 by addition of aqueous 2 M NaOH. The solution was stirred on a magnetic stir-plate at room temperature for 1 hour, and the precipitate was removed from the solution by filtration through a 0.45 μtm regenerated cellulose syringe filter. From this filtered solution, 1 mL was set aside for elemental analysis as the “initial” solution, 1 mL was set aside as a “control” solution in a clean 4 mL glass vial with a PTFE-coated stir bar to be stirred at 600 rpm at room temperature on a magnetic stirrer, and the remaining 9 mL were diluted slightly by addition of 2 mL H2O, then filtered on an ultrafiltration system with a nanofiltration membrane with molecular weight cut-off of 100-250 Da (NFS membrane, Synder Filtration, CA, USA), 4 bar N2 to pressurize the system, magnetic stiffing at 250 rpm, and continual addition of water to replace the filtered volume. The filtrate was collected in an Erlenmeyer flask, and a total volume of 50 mL was filtered over 11 hours. After this time, the “retained” reaction mixture, now having a volume of 10.5 mL and with some precipitate present, was transferred to a clean 20 mL glass vial and stirred by PTFE-coated stir bar on a magnetic stirrer at 600 rpm for an additional 10 hours, as was the control solution. After this additional time, samples of both the control solution and the retained solution from the ultrafiltration were prepared for elemental analysis by filtration through 0.45 μm nylon syringe filters. The initial, control, and retained solutions were then analysed by ICP-OES for determination of absolute Nd, Pr, Dy, and Tb content.

[5] = control solution, stirred without ultrafiltration
[6] = initial solution (L5 + benzoic acid, pH 6.5, filtered)
[7] = retained solution after ultrafiltration (100-250 Da membrane)
[8] = retained*, recalculated from end volume 10.5 to original 9.0 mL

Compound: O=C(O)CN1CCN(CC(=O)O)CCN(Cc2ccccc2)CCN(CC(=O)O)CC1 [L1, 2,2′,2″-(10-benzyl-1,4,7,10-tetraazacyclododecane-1,4,7-triyl)triacetic Acid]
- Supernatant concentration [mM] Lu ([1]; group A, 1st precipitation): 4.28 mM and 4.35 mM and 4.12 mM and 4.36 mM
- Precipitate concentration [mM] Gd ([1]; group A, 1st precipitation): 4.24 mM and 4.38 mM and 4.22 mM and 4.12 mM
- Precipitate concentration [mM] Lu ([1]; group A, 1st precipitation): 0.99 mM and 1.08 mM and 0.98 mM and 0.90 mM
- Supernatant concentration [mM] Lu ([1]; group B, 2nd precipitation): 0.80 mM and 0.83 mM and 0.77 mM
- Precipitate concentration [mM] Gd ([1]; group B, 2nd precipitation): 3.33 mM and 3.40 mM and 3.70 mM and 3.48 mM
- Precipitate concentration [mM] Lu ([1]; group B, 2nd precipitation): 0.23 mM and 0.21 mM and 0.22 mM (2×)
- Supernatant concentration [mM] Lu ([1]; group C, 3rd precipitation): 0.24** mM and 0.17 mM and 0.16 mM and 0.19 mM
- Precipitate concentration [mM] Lu ([1]; group C, 3rd precipitation): 0.05** mM and 0.07 mM and 0.06 mM

Compound: O=C(O)CN1CCN(CC(=O)O)CCN(Cc2cccc3ccccc23)CCN(CC(=O)O)CC1 [L5, 2,2′,2″-(10-(naphthalene-1-ylmethyl)-1,4,7,10-tetraazacyklododekane-1,4,7-triyl)triacetic acid]
- Precipitate concentration [mM] Dy [2]: 4.60 mM
- Precipitate concentration [mM] Nd [2]: 4.98 mM
- Supernatant concentration [mM] Dy [2]: 0.37 mM
- Supernatant concentration [mM] Nd [2]: 0.07 mM
- % of initial [chelate] in filtrate ([3]; additive acetate 76 mM): 0.8%
- % of initial [chelate] in filtrate ([3]; additive benzoic acid 76 mM): 0.3%
- % of initial [chelate] in filtrate ([3]; additive α-HIBA 30.4 mM): 0.4%
- concentration Dy [4, 5]: 760 µM
- concentration Nd [4, 5]: 1800 µM
- concentration Pr [4, 5]: 400 µM
- concentration Tb [4, 5]: 750 µM
- concentration sum of M [4, 5]: 3710 µM
- concentration Dy [4, 6]: 770 µM
- concentration Nd [4, 6]: 1800 µM
- concentration Pr [4, 6]: 400 µM
- concentration Tb [4, 6]: 760 µM
- concentration sum of M [4, 6]: 3730 µM
- concentration Dy [4, 7]: 440 µM
- concentration Nd [4, 7]: 1030 µM
- concentration Pr [4, 7]: 230 µM
- concentration Tb [4, 7]: 420 µM
- concentration sum of M [4, 7]: 2120 µM
- concentration Dy [4, 8]: 510 µM
- concentration Nd [4, 8]: 1200 µM
- concentration Pr [4, 8]: 270 µM
- concentration Tb [4, 8]: 490 µM
- concentration sum of M [4, 8]: 2470 µM
